Reference: patent US20200061062A1, “INHIBITORS OF HUMAN PHOSPHATIDYLINOSITOL 3-KINASE DELTA” (ICOS Corporation, priority 2000, published 2020)

Columns and labels:
[1] = target: T1, PI3Kα (Homo sapiens, UniProt P42336); assay: Biochemical assay of PI3K potency and selectivity using 20 μM ATP, Alpha; settings: for Alpha/Delta Ratio / IC50: 20 μM ATP; for Alpha/Delta Ratio: ratio of IC50 values, > = hypothetical ratio with 100 μM substituted for the missing IC50; for IC50: read-out: Alpha IC50; for remaining activity at 100 µM: read-out: percent activity remaining at 100 μM, 20 μM ATP, 100 μM compound did not inhibit by at least 50%
T1 construct: His tag (pFastbac HTb vector) (N); FLAG; made in house; host or cells: Sf21 insect cells (baculovirus)
In short: (§1)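 Lipid-kinase radiometric assay with γ-[32P]ATP (20 μM ATP) on PIP2/PS liposomes in 20 mM HEPES pH 7.4; the 3× substrate mix held […] and 6 μM liposomes.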

[2] = target: T2, PI3Kβ (Homo sapiens, UniProt P42338); assay: Biochemical assay of PI3K potency and selectivity using 20 μM ATP, Beta; settings: 20 μM ATP; for Beta/Delta Ratio: ratio of IC50 values, > = hypothetical ratio with 100 μM substituted for the missing IC50; for remaining activity at 100 µM: read-out: Beta: percent activity remaining at 100 μM, 100 μM compound did not inhibit by at least 50%; for IC50: read-out: Beta IC50
T2 construct: His tag (pFastbac HTa vector) (N); FLAG (N); made in house; host or cells: Sf21 insect cells (baculovirus)
In short: as §1

[3] = tested on: Murine splenocytes (Balb/c); assay: B cell proliferation in response to cell surface IgM stimulation; format: cell-based; settings: Mus musculus, Splenocyte; stimulated B cell proliferation; read-out: Mouse BCR Stim (EC50)
In short: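 Balb/c splenocytes (2×10^5/well, 10% FBS/RPMI) preincubated 30-60 min with inhibitor, then stimulated with goat F(ab′)2 anti-mouse IgM μ-chain at 25 μg/mL final. Cultured 3 days at 37° C., [^3H]-thymidine pulsed for final 4 h; incorporation counted as CPM. Values are EC50 (μM).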

[4] = tested on: T cell proliferation; assay: Stimulated T cell proliferation (Mouse TCE Stim, Table 4); format: cell-based; settings: stimulated T cell proliferation, read-out: Mouse TCE Stim (EC50)
[5] = target: T3, PI3Kδ (Homo sapiens, UniProt O00329, S253N); assay: Biochemical assay of PI3K potency and selectivity using 20 μM ATP, Delta; parameters: His tag (pFastbac HTb vector) (N); FLAG; made in house; host or cells: Sf21 insect cells (baculovirus); settings: 20 μM ATP; read-out: Delta IC50
In short: as §1

[6] = target: T1, PI3Kα; assay: Biochemical assay using 200 μM ATP, Alpha
[7] = target: T2, PI3Kβ; assay: Biochemical assay using 200 μM ATP, Beta
Experimental: PI3Kδ catalyzes a phosphotransfer from γ-[^32P]ATP to PIP2/PS liposomes at the D3′ position of the PIP2 lipid inositol ring. This reaction is MgCl2 dependent and is quenched in high molarity potassium phosphate buffer pH 8.0 containing 30 mM EDTA. […] The reaction products (and all unlabelled products) are transferred to a 96-well, prewetted PVDF filter plate, filtered, and washed in high molarity potassium phosphate. Scintillant is added to the dried wells and the incorporated radioactivity is quantitated.
This dilution established a final concentration of 200 μM ATP in the reaction volume. The reaction was stopped with 150 μL quench buffer (1.0 M potassium phosphate pH 8.0, 30 mM EDTA). A portion of the quenched solution (180 μL) was then transferred to a PVDF filter plate (Millipore # MAIP NOB prewetted with sequential 200 μL washes of 100% methanol, water, and finally 1.0 M potassium phosphate pH 8.0 wash buffer).
The PVDF filter plate was aspirated under moderate vacuum (2-5 mm Hg), washed with 5×200 μL of wash buffer, and then dried by aspiration. The filter was subsequently blotted, allowed to air dry completely, and inserted into a Wallac counting cassette with 50 μL of Ecoscint scintillation cocktail added per well.
Subsequent selectivity assays were done similarly using the same 3× substrate stocks except they contained 0.05 mCi/mL γ[^32P]ATP and 3 mM PIP2. Subsequent selectivity assays also used the same 3× enzyme stocks, except they now contained 3 nM of any given PI3K isoform.
For all selectivity assays, the test compounds were weighed out and dissolved into 10-50 mM stocks in 100% DMSO (depending on their respective solubilities) and stored at −20° C. […] From these dilutions, 20 μL was added into the assay wells alongside water blanks used for the enzyme (positive) control and the no enzyme (background) control.
This selectivity protocol is identical to that described above, except the 3× stock ATP concentration was 600 μM.

[8] = target: T4, PI3Kγ (Homo sapiens, UniProt P48736); assay: Biochemical assay using 200 μM ATP, Gamma
T4 construct: His tag (pFastbac HTb vector) (N); FLAG (N); made in house; host or cells: Sf21 insect cells (baculovirus)

[9] = tested on: human neutrophils; assay: Elastase exocytosis from neutrophils (fMLP-induced); format: cell-based; settings: neutrophil (PMN) elastase release
Experimental: Aliquots (8 mL) of heparinized blood from healthy volunteers were layered on 3 mL cushions of 7.3% FICOLL® (Sigma, St. Louis, Mo.) and 15.4% HYPAQUE® (Sigma) and centrifuged at 900 rpm for 30 min at room temperature in a table top centrifuge (Beckman). The neutrophil-rich band just above the FICOLL®-HYPAQUE® cushion was collected and washed with Hanks' balanced salt solution (HBSS) containing 0.1% gelatin. Residual erythrocytes were removed by hypotonic lysis with 0.2% NaCl. The neutrophil preparation was washed twice with HBSS containing 0.1% gelatin and used immediately.
In addition to superoxide generation, activated neutrophils also respond by releasing several proteases that are responsible for the destruction of tissues and cartilage during inflammation. As an indication of protease release, the effect of D-000 on elastase exocytosis was measured. Elastase exocytosis was quantitated by modification of the procedure described by Ossanna et al. (J Clin Invest, 77:1939-1951 (1986)), as follows. Purified human neutrophils (0.2×10^6) (treated with either DMSO or a serial dilution of D-000 in DMSO) were stimulated with fMLP in PBS containing 0.01 mg/mL cytochalasin B, 1.0 μM sodium azide (NaN3), 5 μg/mL L-methionine and 1 μM fMLP for 90 min at 37° C. in a 96-well plate. At the end of the incubation period, the plate was centrifuged for 5 min at 1000 rpm, and 90 μL of the supernatant was transferred to 10 μL of 10 mM solution of an elastase substrate peptide, MeO-suc-Ala-Ala-Pro-Val-pNA, wherein MeO-suc=methoxy-succinyl; pNA=p-nitroanilide (Calbiochem, San Diego, Calif.). Absorbance at 410 nm was monitored for 2 hr in a 96-well plate reader. To measure the relative amounts of elastase excytosed, all absorbance values were normalized to the values without any inhibitor. […] Inhibition was half-maximal at a concentration of about 2-3 μM D-000.
Using the methods described in Examples 3-5, above, compounds of the invention were tested for inhibitory activity and potency in assays of stimulated B and T cell proliferation, neutrophil (PMN) migration, and neutrophil (PMN) elastase release. In Table 4, the values shown are effective concentrations of the compound (EC50; μM). Where no value is given, no assay was performed.

[10] = target: T3, PI3Kδ; assay: Biochemical assay using 200 μM ATP, Delta;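 note: radiometric filter-binding assay: PI3Kδ transfers ³²P from γ-[³²P]ATP onto PIP2/PS liposomes, counted by scintillation, enzyme-only wells as positive control, no-enzyme wells as background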
[11] = target: T4, PI3Kγ; assay: Biochemical assay of PI3K potency and selectivity using 20 μM ATP, Gamma
Source text: Recombinant baculoviruses containing the above clones were generated using manufacturer's recommended protocol (Life Technologies). Baculoviruses expressing His-tagged p110α, p110γ, or p110δ catalytic subunit and p85 subunit were coinfected into Sf21 insect cells. To enrich the heterodimeric enzyme complex, an excess amount of baculovirus expressing p85 subunit was infected, and the His-tagged p110 catalytic subunit complexed with p85 was purified on nickel affinity column. […] In an alternate approach, p101 can be cloned into baculovirus, to permit coexpression with its preferred binding partner p110γ. […]

T3 sequence (O00329 whole entry S253N): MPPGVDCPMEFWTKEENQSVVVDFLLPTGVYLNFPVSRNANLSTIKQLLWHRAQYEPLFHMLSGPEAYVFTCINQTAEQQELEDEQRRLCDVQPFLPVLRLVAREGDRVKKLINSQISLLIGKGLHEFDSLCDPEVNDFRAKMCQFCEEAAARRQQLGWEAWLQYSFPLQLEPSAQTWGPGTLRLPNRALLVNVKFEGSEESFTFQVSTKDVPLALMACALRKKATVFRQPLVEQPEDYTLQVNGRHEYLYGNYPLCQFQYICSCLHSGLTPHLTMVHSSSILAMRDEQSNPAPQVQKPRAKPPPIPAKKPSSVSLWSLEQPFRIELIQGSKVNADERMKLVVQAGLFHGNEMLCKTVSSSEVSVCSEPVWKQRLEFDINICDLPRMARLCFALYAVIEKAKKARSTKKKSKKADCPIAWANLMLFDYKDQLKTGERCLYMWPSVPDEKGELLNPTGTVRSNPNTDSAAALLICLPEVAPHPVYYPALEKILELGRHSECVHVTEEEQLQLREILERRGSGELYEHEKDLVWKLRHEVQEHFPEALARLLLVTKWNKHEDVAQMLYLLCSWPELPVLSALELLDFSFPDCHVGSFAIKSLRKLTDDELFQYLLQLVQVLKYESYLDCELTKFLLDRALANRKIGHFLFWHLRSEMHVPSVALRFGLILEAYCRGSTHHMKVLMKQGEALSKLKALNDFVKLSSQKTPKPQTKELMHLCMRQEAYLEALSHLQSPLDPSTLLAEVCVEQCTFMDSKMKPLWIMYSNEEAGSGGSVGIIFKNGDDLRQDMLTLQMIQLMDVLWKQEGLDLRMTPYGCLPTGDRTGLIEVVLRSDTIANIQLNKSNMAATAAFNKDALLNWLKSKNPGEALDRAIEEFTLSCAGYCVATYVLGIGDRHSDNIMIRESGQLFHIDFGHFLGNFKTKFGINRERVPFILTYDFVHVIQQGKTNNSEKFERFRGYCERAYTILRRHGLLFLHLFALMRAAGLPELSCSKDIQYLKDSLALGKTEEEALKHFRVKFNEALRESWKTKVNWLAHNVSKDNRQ
T3 sequence (P27986 whole entry partner): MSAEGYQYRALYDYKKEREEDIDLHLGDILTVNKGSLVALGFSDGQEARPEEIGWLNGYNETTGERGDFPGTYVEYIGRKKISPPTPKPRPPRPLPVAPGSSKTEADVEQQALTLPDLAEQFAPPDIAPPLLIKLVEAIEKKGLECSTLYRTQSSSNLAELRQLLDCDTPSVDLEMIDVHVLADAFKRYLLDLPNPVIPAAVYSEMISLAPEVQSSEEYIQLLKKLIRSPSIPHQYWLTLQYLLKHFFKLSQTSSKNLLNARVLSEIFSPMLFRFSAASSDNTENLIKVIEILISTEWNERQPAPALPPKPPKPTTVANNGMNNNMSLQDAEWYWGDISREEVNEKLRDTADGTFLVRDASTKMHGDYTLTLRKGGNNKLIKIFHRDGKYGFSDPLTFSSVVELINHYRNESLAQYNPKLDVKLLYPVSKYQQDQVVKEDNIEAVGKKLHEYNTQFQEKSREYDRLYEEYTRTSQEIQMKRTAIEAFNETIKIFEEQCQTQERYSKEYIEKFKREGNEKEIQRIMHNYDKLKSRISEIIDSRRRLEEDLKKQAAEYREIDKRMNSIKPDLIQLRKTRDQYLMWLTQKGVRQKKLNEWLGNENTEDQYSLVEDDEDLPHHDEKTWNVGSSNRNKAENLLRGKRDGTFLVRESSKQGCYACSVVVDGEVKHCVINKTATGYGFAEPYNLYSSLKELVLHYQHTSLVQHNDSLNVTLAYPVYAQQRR
T2 sequence (P42338 whole entry): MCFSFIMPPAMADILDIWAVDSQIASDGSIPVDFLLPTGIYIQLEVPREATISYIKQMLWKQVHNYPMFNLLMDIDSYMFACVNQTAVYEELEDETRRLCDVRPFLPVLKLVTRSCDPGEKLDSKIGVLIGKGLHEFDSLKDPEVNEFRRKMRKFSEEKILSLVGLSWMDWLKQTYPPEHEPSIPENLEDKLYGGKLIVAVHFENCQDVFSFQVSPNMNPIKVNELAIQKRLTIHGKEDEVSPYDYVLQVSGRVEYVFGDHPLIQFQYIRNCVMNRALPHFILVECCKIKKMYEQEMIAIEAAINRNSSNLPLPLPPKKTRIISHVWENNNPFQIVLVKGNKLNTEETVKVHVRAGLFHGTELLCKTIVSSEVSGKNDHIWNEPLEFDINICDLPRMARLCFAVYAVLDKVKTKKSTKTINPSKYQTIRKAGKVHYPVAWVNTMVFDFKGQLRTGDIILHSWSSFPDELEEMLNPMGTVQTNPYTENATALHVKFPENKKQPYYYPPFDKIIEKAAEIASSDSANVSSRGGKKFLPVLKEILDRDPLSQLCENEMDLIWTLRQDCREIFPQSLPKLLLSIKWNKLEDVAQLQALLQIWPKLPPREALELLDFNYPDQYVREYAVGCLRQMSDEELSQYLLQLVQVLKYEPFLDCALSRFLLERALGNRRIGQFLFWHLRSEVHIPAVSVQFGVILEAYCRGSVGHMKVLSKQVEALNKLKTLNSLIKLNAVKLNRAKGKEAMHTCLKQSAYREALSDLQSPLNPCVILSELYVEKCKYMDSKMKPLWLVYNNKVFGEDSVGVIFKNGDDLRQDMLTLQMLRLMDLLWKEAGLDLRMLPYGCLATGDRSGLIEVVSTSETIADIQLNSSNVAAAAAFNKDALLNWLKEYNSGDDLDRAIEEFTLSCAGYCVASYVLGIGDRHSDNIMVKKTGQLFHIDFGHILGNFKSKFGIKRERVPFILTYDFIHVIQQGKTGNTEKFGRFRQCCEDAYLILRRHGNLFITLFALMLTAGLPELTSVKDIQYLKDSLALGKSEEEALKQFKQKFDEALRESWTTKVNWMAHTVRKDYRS
T2 sequence (P27986 whole entry partner): as the sequence (P27986 whole entry partner) above
T4 sequence (P48736 whole entry): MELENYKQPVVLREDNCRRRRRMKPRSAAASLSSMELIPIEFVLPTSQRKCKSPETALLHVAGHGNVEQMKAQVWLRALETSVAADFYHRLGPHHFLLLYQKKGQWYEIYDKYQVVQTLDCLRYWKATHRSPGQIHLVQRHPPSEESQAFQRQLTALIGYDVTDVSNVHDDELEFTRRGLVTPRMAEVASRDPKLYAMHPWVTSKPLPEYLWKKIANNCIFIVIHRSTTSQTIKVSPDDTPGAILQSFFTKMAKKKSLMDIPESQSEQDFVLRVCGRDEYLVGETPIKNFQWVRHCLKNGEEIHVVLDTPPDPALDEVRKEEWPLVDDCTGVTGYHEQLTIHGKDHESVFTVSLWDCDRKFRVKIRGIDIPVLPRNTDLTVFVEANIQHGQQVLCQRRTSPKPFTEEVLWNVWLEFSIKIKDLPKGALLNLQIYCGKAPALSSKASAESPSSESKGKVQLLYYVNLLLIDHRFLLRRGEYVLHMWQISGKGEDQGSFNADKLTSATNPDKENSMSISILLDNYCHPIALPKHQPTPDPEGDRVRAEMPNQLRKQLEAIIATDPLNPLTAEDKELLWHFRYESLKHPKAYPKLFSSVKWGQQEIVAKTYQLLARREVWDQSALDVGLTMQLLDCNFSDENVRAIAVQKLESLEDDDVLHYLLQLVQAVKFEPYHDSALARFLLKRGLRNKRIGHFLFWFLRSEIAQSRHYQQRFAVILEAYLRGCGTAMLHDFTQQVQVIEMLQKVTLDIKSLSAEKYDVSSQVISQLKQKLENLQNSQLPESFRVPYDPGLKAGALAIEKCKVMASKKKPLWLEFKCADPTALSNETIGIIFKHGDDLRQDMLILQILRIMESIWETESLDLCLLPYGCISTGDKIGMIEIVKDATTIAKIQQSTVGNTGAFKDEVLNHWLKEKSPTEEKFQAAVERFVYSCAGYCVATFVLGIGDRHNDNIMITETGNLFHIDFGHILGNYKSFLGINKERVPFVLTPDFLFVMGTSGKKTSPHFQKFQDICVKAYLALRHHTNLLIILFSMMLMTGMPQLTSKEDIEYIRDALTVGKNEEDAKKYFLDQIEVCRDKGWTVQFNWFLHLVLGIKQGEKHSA
T1 sequence (P42336 whole entry): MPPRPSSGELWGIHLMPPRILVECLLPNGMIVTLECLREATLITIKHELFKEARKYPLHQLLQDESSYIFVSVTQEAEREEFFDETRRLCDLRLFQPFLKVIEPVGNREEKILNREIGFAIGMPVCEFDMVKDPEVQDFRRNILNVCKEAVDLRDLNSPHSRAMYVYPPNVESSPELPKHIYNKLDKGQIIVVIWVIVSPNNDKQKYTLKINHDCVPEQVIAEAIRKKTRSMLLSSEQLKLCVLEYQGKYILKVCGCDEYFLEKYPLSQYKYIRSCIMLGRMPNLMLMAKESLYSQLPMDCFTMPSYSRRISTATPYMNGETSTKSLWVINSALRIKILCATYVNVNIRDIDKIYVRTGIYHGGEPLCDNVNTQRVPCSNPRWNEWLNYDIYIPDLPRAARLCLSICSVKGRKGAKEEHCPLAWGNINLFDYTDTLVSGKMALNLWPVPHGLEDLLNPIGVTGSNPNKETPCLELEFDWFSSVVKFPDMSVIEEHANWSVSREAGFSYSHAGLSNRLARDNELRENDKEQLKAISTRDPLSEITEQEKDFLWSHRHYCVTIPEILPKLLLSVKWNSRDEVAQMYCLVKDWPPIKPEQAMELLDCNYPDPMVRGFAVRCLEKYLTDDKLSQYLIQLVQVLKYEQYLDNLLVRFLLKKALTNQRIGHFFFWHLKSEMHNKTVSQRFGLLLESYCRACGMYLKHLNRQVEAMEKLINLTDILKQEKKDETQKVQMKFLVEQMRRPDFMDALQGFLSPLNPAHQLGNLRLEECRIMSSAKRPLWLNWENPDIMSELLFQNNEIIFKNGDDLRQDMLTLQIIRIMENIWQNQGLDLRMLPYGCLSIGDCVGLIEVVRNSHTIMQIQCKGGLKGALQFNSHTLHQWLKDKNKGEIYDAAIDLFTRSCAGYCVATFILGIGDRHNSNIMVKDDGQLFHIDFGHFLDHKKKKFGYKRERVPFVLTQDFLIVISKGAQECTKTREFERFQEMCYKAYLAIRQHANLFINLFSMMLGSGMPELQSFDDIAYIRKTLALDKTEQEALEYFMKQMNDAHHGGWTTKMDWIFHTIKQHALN
T1 sequence (P27986 whole entry partner): as the sequence (P27986 whole entry partner) above

Gamma/Delta Ratio ([11]; ratio of IC50 values) | SMILES | Alpha/Delta Ratio [1] | IC50 [1] [µM] | Beta/Delta Ratio [2] | remaining activity at 100 µM [2] [%] | EC50 [3] [µM] | EC50 [4] [µM] | melting point | IC50 [5] [µM] | remaining activity at 100 µM [1] [%] | IC50 [2] [µM] | Alpha/Delta Ratio [6] | Beta/Delta Ratio [7] | Gamma/Delta Ratio [8] | EC50 [9] [µM] | IC50 [10] [µM] | IC50 [7] [µM] | IC50 [8] [µM] | IC50 [11] [µM] | IC50 [6] [µM]
 | Nc1ncnc2c1ncn2Cc1nc2cc(F)ccc2c(=O)n1-c1ccccc1Cl [Compound D-003, 2-(6-Aminopurin-o-ylmethyl)-3-(2-chlorophenyl)-7-fluoro-3N-quinazolin-4-one] | 22 | 92 | >24 | 53 | 3.9 | 5.7 | 216.8 to 217.2 °C | 4 |  |  |  |  |  |  |  |  |  |  | 
 | Nc1ncnc2c1ncn2Cc1nc2cccc(F)c2c(=O)n1-c1ccccc1Cl [Compound D-005, 2-(6-Aminopurin-9-ylmethyl)-3-(2-chlorophenyl)-5-fluoro-3H-quinazolin-4-one] | >121 |  | 56 |  | 0.7 ± 0.1 | 3.9 | 159 to 172 °C (dec.) | 0.8 | 89 | 46 | 20 | 16 | 17 | 4.3 ± 1 | 11 |  |  |  | 
 | Nc1ncnc2c1ncn2Cc1nc2cccc(Cl)c2c(=O)n1-c1ccccc1Cl [Compound D-006, 2-(6-Aminopurin-o-ylmethyl)-5-chloro-3-(2-chlorophenyl)-3H-quinazolin-4-one] | >652 |  | 38 |  | 0.2 ± 0.1 | 5.3 | 245.7 to 246 °C | 0.15 | 78 | 6 | 226 | 48 | 95 | 0.3 ± 0.1 | 0.92 ± 0.1 | 44 ± 5 | 87 ± 33 |  | 
 | Cc1cccc2nc(Cn3cnc4c(N)ncnc43)n(-c3ccccc3Cl)c(=O)c12 [Compound D-007, 2-(6-Aminopurin-9-ylmethyl)-3-(2-chlorophenyl)-5-methyl-3H-quinazolin-4-one] | >619 |  | 188 |  | 0.3 ± 0.1 | 4.2 | 190.7 to 190.9 °C | 0.16 | 82 | 30 | 252 | 99 | 121 | 0.4 | 0.73 ± 0.2 | 72 ± 12 | 88 ± 4 |  | 
 | O=c1c2cc3ccccc3cc2nc(CSc2ncnc3[nH]cnc23)n1-c1ccccc1Cl [Compound D-019, 3-(2-Chlorophenyl)-2-(9H-purin-6-ylsulfanylmethyl)-3H-benzo[g]quinazolin-4-one] | 10 | 67 | 15 |  | 0.9 ± 0.01 | 0.9 | 247.8 to 254.4 °C (dec.) | 7 |  | 105 | 7 | 3 | 1 |  | 30 | 100 | 33 |  | 
 | O=c1c2cccc(Cl)c2nc(CSc2ncnc3[nH]cnc23)n1-c1ccccc1Cl [Compound D-021, 8-Chloro-3-(2-chlorophenyl)-2-(9H-purin-6-ylsulfanylmethyl)-3H-quinazolin-4-one] | 62 | 100 | 68 |  | 1.8 | 3.5 | 211.9 to 212.7 °C | 1.6 |  | 110 |  |  |  |  |  |  |  |  | 
 | O=c1c2ccc(F)cc2nc(CSc2ncnc3[nH]cnc23)n1-c1ccccc1Cl [Compound D-022, 3-(2-Chlorophenyl)-7-fluoro-2-(9H-purin-6-ylsulfanylmethyl)-3H-quinazolin-4-one] |  |  |  |  | 1.8 | 2.3 | 151.4 to 154.2 °C | 0.8 |  | 110 |  |  |  |  | 4.2 |  |  | 40 | 
 | Cc1cccc2nc(CSc3ncnc4[nH]cnc34)n(-c3ccccc3C(C)C)c(=O)c12 [Compound D-035, 3-(2-isopropylphenyl)-5-methyl-2-(9H-purin-6-ylsulfanylmethyl)-3H-quinazolin-4-one] | 199 | 9 | 65 |  | 0.2 ± 0.1 | 2.9 ± 0.7 |  | 0.05 |  | 3 | 193 | 69 | 14 | 0.3 ± 0.1 | 0.49 ± 0.1 | 34 ± 6 | 6.8 ± 1 |  | 95 ± 6
100 | CCCCn1c(CSc2ncnc3[nH]cnc23)nc2ccccc2c1=O [Compound D-038, 3-butyl-2-(9H-purin-6-ylsulfanylmethyl)-3H-quinazolin-4-one] | >167 |  | >170 | 63 | 1.4 ± 0.1 | 2.9 |  | 0.6 | 77 |  | 77 | 82 | 31 | 5 | 1.8 |  | 55 | 60 | 
 | Cc1cccc2nc(Cn3cnc4c(N)ncnc43)n(-c3ccccc3F)c(=O)c12 [Compound D-048, 2-(6-aminopurin-9-ylmethyl)-3-(2-fluorophenyl)-5-methyl-3H-quinazolin-4-one] | 449 | 70 | 90 |  | 0.4 ± 0.2 | 5 |  | 0.16 |  | 14 | 67 | 70 | 91 | 0.9 ± 0.2 | 1.4 ± 0.9 | 95 ± 7 | 123 ± 40 |  | 90 ± 57
 | Nc1ncnc2c1ncn2Cc1nc2cccc(F)c2c(=O)n1Cc1ccccc1 [Compound D-049, 2-(6-aminopurin-9-ylmethyl)-3-benzyl-5-fluoro-3H-quinazolin-4-one] | >100 |  | 30 |  | 2 | 6.3 |  | 1 | 110 | 30 |  |  |  | 5 |  |  |  |  | 
